This is an account of results in the supplement of paper PMC6723410.

Structures are written as SMILES.

This test deals with GUMC-403. Briefly: viability at highest tested concentration (max response) relative to DMSO (% of DMSO control); higher = less cytotoxic. To be noted: library / dose series: MIPE library, 11-point 1:3 dilution; top concentration 46.1 µM; 48 h. In short, it runs like this: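 The value is viability at the highest tested concentration, expressed relative to vehicle control. Patient-derived GUMC-403 papilloma cells, grown by conditional reprogramming, were seeded at 700/well in 5 μL F + Y medium in 1536-well plates. After an overnight incubation at 37 °C, they received 23 nL of compound by pin tool for 48 h. Readout was CellTiter-Glo luminescence on a ViewLux, normalised to vehicle wells (100%) and empty wells (0%).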
The compound `CN(C(Cc1ccc(O[S+](=O)([O-])c2cccc3cnccc23)cc1)C(=O)N1CCN(c2ccccc2)CC1)[S+](=O)([O-])c1cccc2cnccc12` (stereo not given) gave a viability of 83.2.
With `COC1=CC(=CC=C1)C2=CC=C(NC(=O)/C3=C(/CCC3)C(O)=O)C(=C2)F` the figure was 99.8; with `CC(=O)Nc1sc2c(c1-c1nc3ccccc3s1)CNC2`, 86.3; with `CCCCc1oc2ccc(NS(C)(=O)=O)cc2c1C(=O)c1ccc(OCCCN(CCCC)CCCC)cc1`, 126.
Under `NC(=O)c1ccc(I)c([N+](=O)[O-])c1` stands 122.
With `CCC(C1CCC(C)C(O1)C(C)C(O)C(C)C(=O)C(CC)C2OC\3(O[C@]4(CC[C@@](C)(O4)C5CC[C@@](O)(CC)C(C)O5)C(O)\C=C3)C(C)CC2C)C([O-])=O` (stereo not given in full), the viability was 76.
As to `COC1=CC=C2[C@H]3CC[C@]4(C)[C@H](CC[C@H]4[C@@H]3CCC2=C1)NCCCCCCN5C(=O)\C=C/C5=O`, the viability is 129.
`COC1=C2OC(=O)\C=C/C2=CC3=C1OC=C3` displayed a viability of 102.
Under `CN[C@@H]1Cc2cccc3[nH]c(=O)n(c23)C1` stands 112; under `COc1cc2ncnc(-n3nc(-c4ccccn4)nc3N)c2cc1OC`, 124.
As for `C[C@]12CC[C@H]3[C@@H](CC[C@@]45O[C@@H]4C(O)=C(C#N)C[C@]35C)[C@@H]1CC[C@@H]2O`, the viability amounted to 124.
The compound `Cc1ccccc1C(C(=O)NC1CCCCC1)N(C(=O)CNc1ccc(C#N)cc1)c1cccc(F)c1` (stereo not given) had a viability of 108.
For `OC[C@@H](O)[C@@H](O)[C@H](O)[C@@H](O)CO`, the viability came out at 128.
Under `CC(C)NCC(O)COc1ccc(CCOCC2CC2)cc1` (stereo not given) stands 117; under `CC(=O)O/N=C1/C(=C2\C(=O)Nc3cc(Br)ccc32)Nc2ccccc21`, 122; under `CCCCCCCCCCCC(CC1OC(=O)C1CCCCCC)OC(=O)C(CC(C)C)NC=O` (stereo not given), 101.
With `O=[N+]([O-])c1cnc(Sc2nnc(O)n2-c2ccc3c(c2)OCCO3)s1` the figure was 91.3.
Under `Cc1cnc(-c2cc(N3CCN(C(=O)CC[S+](C)(=O)[O-])CC3)ncc2Cl)c(C)c1` stands 72.3; under `C[S+](=O)([O-])Oc1ccc2c(NC(N)=O)c(C(=O)c3ccc(Cl)cc3Cl)oc2c1`, 108.
`O=c1cc(O)c(Cl)c[nH]1` came in with a viability of 106.
As to `COc1cc([C@@H]2c3cc4c(cc3[C@@H](O[C@@H]3O[C@@H]5CO[C@@H](C)O[C@H]5[C@H](O)[C@H]3O)[C@H]3COC(=O)[C@H]23)OCO4)cc(OC)c1O`, the viability was 124.
In turn, `Cc1cn2c(-c3cn[nH]c3)cnc2c(Nc2ccc(C(=O)N3CCNCC3)cc2F)n1` displayed a viability of 60.9.
With `CCOP(=O)(OCC)C(C)NC(=O)N(CCCl)N=O` (stereo not given) the figure was 111.
Under `CC1(C)[C@@H](O)CC[C@@]2(C)[C@H]1CC[C@]3(C)[C@@H]2C(=O)\C=C/4[C@@H]5C[C@](C)(CC[C@]5(C)CC[C@@]34C)C(O)=O` stands 117; under `CC(C)CNc1ccnc(NCc2csc(-c3ccccc3)n2)n1`, 100; under `c1ccc(CCCN2CCN(CCOC(c3ccccc3)c3ccccc3)CC2)cc1`, 88.7.
With `Cl.c1cnc2cc3c(cc2n1)C1CNCC3C1` the figure was 107; with `N#CC[C@H](C1CCCC1)n1cc(-c2ncnc3[nH]ccc23)cn1`, 117.
Consider `CN[S+](=O)([O-])Cc1ccc2[nH]cc(CCN(C)C)c2c1`, for which the viability was determined as 126.
Under `CC(C)(O)CC(=O)NCCn1ccc2ncnc(Nc3ccc(Oc4cccc(C(F)(F)F)c4)c(Cl)c3)c21` stands 71.7; under `Cn1cnc([N+](=O)[O-])c1Sc1ncnc2nc[nH]c12`, 105.
The compound `C[C@H]1C[C@H]2[C@@H]3CCC4=CC(=O)C=C[C@]4(C)[C@@]3(F)[C@@H](O)C[C@]2(C)[C@@]1(O)C(=O)CO` yielded a viability of 142.
With `CC1=C(C=CC=C1)N2\C(=N/C3=C(C(=CC=C3)C)C2=O)C[N]4N=CC5=C4N=CN=C5N` the figure was 85.3; with `C1CN\2C[C@@H](\N=C2S1)C3=CC=CC=C3`, 125.
In turn, `OC1=CC2=C(C=C1)C(=O)\C(=C(O2)\C3=CC(=C(O)C=C3)O)O` came in with a viability of 72.6.
Compound `O=C(NCCO[N+](=O)[O-])c1cccnc1` registered a viability of 108.
The compound `COC(c1ccccc1)(c1ccccc1)[C@H](Oc1nc(C)cc(C)n1)C(=O)O` had a viability of 136.
With `CCCC[S+](=N)([O-])CCC(N)C(=O)O` (stereo not given) the figure was 111; with `CN(C)[C@H]\1[C@@H]2C[C@H]3C(=C(O)\[C@]2(O)C(=O)\C(=C1O)C(N)=O)/C(=O)C4=C(O)C=CC=C4[C@@]3(C)O`, 106; with `CCC1(c2ccc(N)cc2)CCC(=O)NC1=O` (stereo not given), 93.1.
Under `Nc1nc(Cl)nc2c1ncn2[C@H]1C[C@H](O)[C@@H](CO)O1` stands 120; under `COc1nccc(-c2c(-c3ccc(F)cc3)ncn2C2CCC(O)CC2)n1` (stereo not given), 131; under `CNC(=O)c1cc(COc2nnc(Nc3ccc(Cl)cc3)c3ccoc23)ccn1`, 113.
With `COC1=CC2=NC=CC(=C2C=C1)OC3=CN=C(NC(=O)C/4=C(C)/N(CC(C)(C)O)N(C4=O)C5=CC=CC=C5)C=C3` the figure was 84.6.
Take `C[C@H]1[C@@H](CC(C[C@H]2O[C@@H]3O[C@]4(C)CC[C@H]5[C@H](C)CC[C@@H]([C@H]2C)[C@@]35OO4)C[S+](=O)([O-])c2ccc(COC(=O)N(C)C)cc2)O[C@@H]2O[C@]3(C)CC[C@H]4[C@H](C)CC[C@@H]1[C@@]24OO3`: the viability came out at 104.
On to `CN(C)c1ccc(O)c2c1C[C@H]1C[C@H]3[C@H](N(C)C)C(O)=C(C(N)=O)C(=O)[C@@]3(O)C(O)=C1C2=O`, for which the viability was 110.
Consider `O=[S+]([O-])(c1cccc2cnccc12)N1CCCNCC1`, for which the viability came out at 128.
With `Cc1ccc(C(=O)Nc2cccc(C(F)(F)F)c2)cc1-c1ccc2nc(NCCN3CCOCC3)ncc2c1` the figure was 55.5.
Take `C=C1/C(=C\C=C2/CCC[C@]3(C)[C@@H]([C@H](C)/C=C/[C@H](C)C(C)C)CC[C@@H]23)C[C@@H](O)C[C@@H]1O`: the viability amounted to 150.
With `CN(C)CCCC1(c2ccc(F)cc2)OCc2cc(C#N)ccc21` (stereo not given) the figure was 98.5; with `CCOC(=O)[C@H](CCc1ccccc1)N[C@@H](C)C(=O)N1CCC[C@H]1C(=O)O`, 125; with `CCCCCN(CCC12CC3CC(CC(C3)C1)C2)C(=O)NCCCc1ccncc1`, 89.8.
Under `C/C(=C\C(=O)Nc1ccccc1C(=O)O)c1ccc2ccccc2c1` stands 127; under `NCCCC(O)(P(=O)(O)O)P(=O)(O)O.O.O.O.[Na+]`, 111; under `N[C@@H](CC(=O)N1CCn2c(nnc2C(F)(F)F)C1)Cc1cc(F)c(F)cc1F`, 97.9.
The compound `COc1ccc(CC2SC(=O)NC2=O)cc1C(=O)NCc1ccc(C(F)(F)F)cc1` (stereo not given) displayed a viability of 95.6.
Under `O=C(NOC[C@H](O)CO)c1ccc(F)c(F)c1Nc1ccc(I)cc1F` stands 101.
With `CCCCC(F)(F)[C@@]1(O)CC[C@H]2[C@@H](CC(=O)[C@@H]2CCCCCCC(=O)O)O1` the figure was 110; with `CCOC(=O)N1CCN(/[N+]([O-])=N/Oc2cc(O/N=[N+](\[O-])N3CCN(C(=O)OCC)CC3)c([N+](=O)[O-])cc2[N+](=O)[O-])CC1`, 118.
Under `CC(C)C(C)/C=C/C(C)C1CCC2C3=CC=C4CC(O)CCC4(C)C3CCC21C` (stereo not given) stands 130; under `CCOC(=O)c1c(CSc2ccccc2)n(C)c2cc(Br)c(O)c(CN(C)C)c12`, 105.
The compound `CN1C(=O)/C=C(/NCCN(CCO)CCCC2=CC=C(C=C2)[N+]([O-])=O)N(C)C1=O` registered a viability of 94.3.
With `CCN1CCC(n2cc(CNc3cc(Cl)c4ncc(C#N)c(Nc5ccc(F)c(Cl)c5)c4c3)nn2)CC1` the figure was 97.
`OC1CCC(CC1)N2\C=N/C3=C(C2=N)C(=C([N]3CC4=CC=CC=C4)C5=CC=CC=C5)C6=CC=CC=C6` (stereo not given) showed a viability of 126.
The compound `Nc1nc(N)nc(-c2cc(Cl)ccc2Cl)n1.O=C(O)/C=C\C(=O)O` displayed a viability of 112.
With `Cc1c(C(=O)c2cccc3ccccc23)c2cccc3c2n1[C@H](CN1CCOCC1)CO3` the figure was 76.9; with `CNc1nccc(-c2cccnc2Oc2cc(C(=O)Nc3cccc(C(F)(F)F)c3)ccc2C)n1`, 98.
`COc1ccc(COc2cc3oc(=O)c4cc(C(C)O)ccc4c3cc2OC)cc1` (stereo not given): the viability stood at 86.3.
Under `C/C=C(/C)C(=O)O[C@H]1C(C)=C[C@]23C(=O)[C@@H](C=C(CO)[C@@H](O)[C@]12O)[C@H]1[C@@H](C[C@H]3C)C1(C)C` stands 106; under `O=C(O)C1CCCN(CCC=C(c2ccccc2)c2ccccc2)C1` (stereo not given), 102; under `O=C(c1ccc(Nc2nccc(-c3cc4ccccc4s3)n2)cc1)N1CCC(N2CCCC2)CC1`, 41.
Under `OC1=CC=C(C=C1)\C2=C\OC3=C(C(=CC(=C3)O)O)C2=O` stands 77.6; under `NC(=O)Nc1cc(-c2ccc(CN3CCOCC3)cc2)sc1C(N)=O`, 70.6; under `Cc1ccc(O)c(C(CCN(C(C)C)C(C)C)c2ccccc2)c1.Cl` (stereo not given), 125.
`CN(C)c1nc(Cc2ccc(NC(=O)c3ccc(C(F)(F)F)cc3)cc2)nc(N(C)C)c1CC(=O)O` registered a viability of 127.
